PubChem BioAssay AID1259407 (Chemical Carcinogenesis Research Information System (CCRIS), 2018)
The source made the active and inactive calls. The rule behind the calls is not given here.

Tested on: CCRIS mutagenicity, Ames/micronucleus/aberration tests
Test: CCRIS mutagenicity studies
Details: Method: PREINCUBATION
[1] = Test System: AMES SALMONELLA TYPHIMURIUM, Strain/Indicator: TA98, Metabolic Activation: NONE
[2] = Test System: AMES SALMONELLA TYPHIMURIUM, Strain/Indicator: TA100, Metabolic Activation: NONE
[3] = Test System: AMES SALMONELLA TYPHIMURIUM, Strain/Indicator: TA1535, Metabolic Activation: NONE

**Q.** Which mutagenic call (Test System: AMES SALMONELLA TYPHIMURIUM, Strain/Indicator: TA97, Metabolic Activation: HAMSTER, LIVER, S-9, AROCLOR 1254 (10%)) does the source give for Oc1cccc(Nc2ccccc2)c1 here?
**A.** inactive; negative

**Q.** And the mutagenic call (Test System: AMES SALMONELLA TYPHIMURIUM, Strain/Indicator: TA97, Metabolic Activation: HAMSTER, LIVER, S-9, AROCLOR 1254 (30%))?
**A.** inactive; negative

**Q.** What about the mutagenic call (Test System: AMES SALMONELLA TYPHIMURIUM, Strain/Indicator: TA97, Metabolic Activation: NONE) of the same molecule?
**A.** inactive; negative

**Q.** And the mutagenic call (Test System: AMES SALMONELLA TYPHIMURIUM, Strain/Indicator: TA97, Metabolic Activation: RAT, LIVER, S-9, AROCLOR 1254 (10%))?
**A.** inactive; negative

**Q.** What about the mutagenic call (Test System: AMES SALMONELLA TYPHIMURIUM, Strain/Indicator: TA97, Metabolic Activation: RAT, LIVER, S-9, AROCLOR 1254 (30%)) of the same molecule?
**A.** inactive; negative

**Q.** And the mutagenic call (Test System: AMES SALMONELLA TYPHIMURIUM, Strain/Indicator: TA98, Metabolic Activation: HAMSTER, LIVER, S-9, AROCLOR 1254 (10%))?
**A.** inactive; negative

**Q.** And the mutagenic call (Test System: AMES SALMONELLA TYPHIMURIUM, Strain/Indicator: TA98, Metabolic Activation: HAMSTER, LIVER, S-9, AROCLOR 1254 (30%))?
**A.** inactive; negative

**Q.** And the mutagenic call [1]?
**A.** inactive; negative

**Q.** What about the mutagenic call (Test System: AMES SALMONELLA TYPHIMURIUM, Strain/Indicator: TA98, Metabolic Activation: RAT, LIVER, S-9, AROCLOR 1254 (10%)) of the same molecule?
**A.** inactive; negative

**Q.** What about the mutagenic call (Test System: AMES SALMONELLA TYPHIMURIUM, Strain/Indicator: TA98, Metabolic Activation: RAT, LIVER, S-9, AROCLOR 1254 (30%)) of the same molecule?
**A.** inactive; negative

**Q.** And the mutagenic call (Test System: AMES SALMONELLA TYPHIMURIUM, Strain/Indicator: TA100, Metabolic Activation: HAMSTER, LIVER, S-9, AROCLOR 1254 (10%))?
**A.** inactive; negative

**Q.** What about the mutagenic call (Test System: AMES SALMONELLA TYPHIMURIUM, Strain/Indicator: TA100, Metabolic Activation: HAMSTER, LIVER, S-9, AROCLOR 1254 (30%)) of the same molecule?
**A.** inactive; negative

**Q.** What about the mutagenic call [2] of the same molecule?
**A.** inactive; negative

**Q.** And the mutagenic call (Test System: AMES SALMONELLA TYPHIMURIUM, Strain/Indicator: TA100, Metabolic Activation: RAT, LIVER, S-9, AROCLOR 1254 (10%))?
**A.** inactive; negative

**Q.** And the mutagenic call (Test System: AMES SALMONELLA TYPHIMURIUM, Strain/Indicator: TA100, Metabolic Activation: RAT, LIVER, S-9, AROCLOR 1254 (30%))?
**A.** inactive; negative

**Q.** And the mutagenic call (Test System: AMES SALMONELLA TYPHIMURIUM, Strain/Indicator: TA1535, Metabolic Activation: HAMSTER, LIVER, S-9, AROCLOR 1254 (10%))?
**A.** inactive; negative

**Q.** What about the mutagenic call (Test System: AMES SALMONELLA TYPHIMURIUM, Strain/Indicator: TA1535, Metabolic Activation: HAMSTER, LIVER, S-9, AROCLOR 1254 (30%)) of the same molecule?
**A.** inactive; negative

**Q.** What about the mutagenic call [3] of the same molecule?
**A.** inactive; negative

**Q.** And the mutagenic call (Test System: AMES SALMONELLA TYPHIMURIUM, Strain/Indicator: TA1535, Metabolic Activation: RAT, LIVER, S-9, AROCLOR 1254 (10%))?
**A.** inactive; negative

**Q.** And the mutagenic call (Test System: AMES SALMONELLA TYPHIMURIUM, Strain/Indicator: TA1535, Metabolic Activation: RAT, LIVER, S-9, AROCLOR 1254 (30%))?
**A.** inactive; negative

**Q.** What does the source list for C[C@@H]1COc2c(N3CCN(C)CC3)c(F)cc3c(=O)c(C(=O)O)cn1c23?
**A.** mutagenic call [1]: inactive; negative; mutagenic call (Test System: AMES SALMONELLA TYPHIMURIUM, Strain/Indicator: TA98, Metabolic Activation: RAT, LIVER, S-9, PHENOBARBITAL AND BETA-NAPHTHOFLAVONE): inactive; negative; mutagenic call [2]: inactive; negative; mutagenic call (Test System: AMES SALMONELLA TYPHIMURIUM, Strain/Indicator: TA100, Metabolic Activation: RAT, LIVER, S-9, PHENOBARBITAL AND BETA-NAPHTHOFLAVONE): inactive; negative; mutagenic call [3]: inactive; negative; mutagenic call (Test System: AMES SALMONELLA TYPHIMURIUM, Strain/Indicator: TA1535, Metabolic Activation: RAT, LIVER, S-9, PHENOBARBITAL AND BETA-NAPHTHOFLAVONE): inactive; negative; mutagenic call (Test System: AMES SALMONELLA TYPHIMURIUM, Strain/Indicator: TA1537, Metabolic Activation: NONE): inactive; negative; mutagenic call (Test System: AMES SALMONELLA TYPHIMURIUM, Strain/Indicator: TA1537, Metabolic Activation: RAT, LIVER, S-9, PHENOBARBITAL AND BETA-NAPHTHOFLAVONE): inactive; negative; mutagenic call (Test System: E.COLI, Strain/Indicator: WP2 UVRA, Metabolic Activation: NONE): inactive; negative; mutagenic call (Test System: E.COLI, Strain/Indicator: WP2 UVRA, Metabolic Activation: RAT, LIVER, S-9, PHENOBARBITAL AND BETA-NAPHTHOFLAVONE): inactive; negative

**Q.** Which mutagenic call [2] does the source give for Cc1cc2ccccc2c2ccc3c(c12)[C@H]1O[C@H]1[C@@H](O)[C@H]3O here?
**A.** active; positive
